Values joined by “and” are separate entries in the source; they are usually repeats but may differ in a detail not shown here. Identical values can stand only once.
What was measured:
Giardia lamblia = type: cell-based; details: Portland isolate
Procedure: A Portland isolate of G. lamblia was treated with bacitracin and zinc bacitracin according to the procedure of Example IV. An Oxoid HP 11 anaerobic gas chamber and BR 38 gas generating kit were used to produce an anaerobic environment. […] The parasites were incubated in the presence of the treating reagent for 2 4 hours. The viability of the parasites was based on morphology and motility.

Trichomonas vaginalis [1] = test: Trichomonas vaginalis assay of other divalent metal salts of bacitracin (MIC); type: cell-based
Procedure: (§1) All isolates were treated with either bacitracin or zinc bacitracin.
(§2) Prior to being diluted with the medium, the bacitracins were initially solubilized in water to 250 mg/ml. The zinc salt was solubilized in acidified water (60 μl HC1/ml). Duplicate plates of each isolate were prepared. one set of plates was exposed to an aerobic environment; and, the second set was exposed to an anaerobic environment. An Oxoid HP 11 anaerobic gas chamber and BR 38 gas generating kit were used to produce the anaerobic environment.
The procedure of Example IV was repeated, substituting bacitracin salts of the following metals for zinc bacitracin: nickel, cadmium, cobalt, manganese, copper and iron. The MLCs of the bacitracin salts were out of range. However, the MICs indicate that, with the exception of ferrous bacitracin, complexation with a divalent metal salt enhanced the activity of bacitracin.

Trichomonas vaginalis [2] = test: Trichomonas vaginalis assay (MLC, aerobic and anaerobic); type: cell-based
Procedure: as §1, §2

[3] = test system: human peripheral lymphocytes; details: cited from earlier work
Micrococcus uteus = details: as obtained from Apothekernes Laboratorium A.S; cited from earlier work
[4] = test system: E. histolytica axenic cultures (NIH:200); test: Axenic culture study of E. histolytica (NIH:200), cell number reduction; type: cell-based, Entamoeba histolytica; details: for Cell number reduction compared to controls: axenic culture
Procedure: Axenic cultures are isolates of amoeba which have been adapted for growth in the absence of bacteria, i.e. they comprise sterile cultures. E. histolytica axenic cultures (NIH:200) were maintained according to the method of Diamond, J. Parasitol. 54, 1047-56 (1968) in TP-S-1 medium modified by replacing the vitamin solution with 2.5% NCTC 135. […] Amoebae were harvested by cooling tubes at 4° C. for 20 minutes in an ice-bath prior to centrifugation at 1,000 rpm for 8 minutes at 4° C. Assays were performed over 36-48 hours, rather than the 24 hour period used for xenic cultures, due to the more extended division time of axenic cultures. All assays were performed in triplicate.

Tritrichomonas gallinae = Tritrichomonas gallinae assay (MLC); type: cell-based; details: isolate GH85
Procedure: A single T. gallinae isolate was collected and treated with bacitracin or zinc bacitracin in accordance with the procedure of Example IV. Duplicate plates of the isolate were prepared. one plate was exposed to an aerobic environment. The second plate was exposed to an anaerobic environment.

Tritrichomonas foetus = Tritrichomonas foetus assay (MLC); type: cell-based
Procedure: Duplicate plates of each isolate were prepared. One set of plates was exposed to an aerobic environment; and, the second set was exposed to an anaerobic environment. An Oxoid HP 11 anaerobic gas chamber and BR 38 gas generating kit were used to produce the anaerobic environment. […]

spleen cells of rats = details: rat, in vivo; cited from earlier work
[5] = test system: histidine auxotrophs of Salmonella typhimurium; details: absence and presence of a rat liver activating system; cited from earlier work

## Zinc bacitracin
Giardia lamblia; anaerobic, 24 hours, two lines of values
  MLC (second of the two columns per drug): > 400 IU/ml and 300 IU/ml
Giardia lamblia; converted from IU/ml
  MICs: 2.3 to 6.3 mg/mL
Trichomonas vaginalis [1]; T. vaginalis isolate 1910
  MIC: 2500 to 5000 µg/mL
Trichomonas vaginalis [1]; T. vaginalis isolate UCH1
  MIC: 2500 µg/mL
Trichomonas vaginalis [2]; isolate 1031, metronidazole-sensitive, aerobic
  MLC: 250 IU/ml
Trichomonas vaginalis [2]; isolate 1031, metronidazole-sensitive, anaerobic
  MLC: 350 IU/ml
Trichomonas vaginalis [2]; isolate 1043, metronidazole-sensitive, aerobic
  MLC: 350 IU/ml
Trichomonas vaginalis [2]; isolate 1043, metronidazole-sensitive, anaerobic
  MLC: 350 IU/ml
Trichomonas vaginalis [2]; isolate 1044, metronidazole-sensitive, aerobic
  MLC: 250 IU/ml
Trichomonas vaginalis [2]; isolate 1044, metronidazole-sensitive, anaerobic
  MLC: 300 IU/ml
Trichomonas vaginalis [2]; isolate 1064, metronidazole-sensitive, aerobic
  MLC: 250 IU/ml
Trichomonas vaginalis [2]; isolate 1064, metronidazole-sensitive, anaerobic
  MLC: 300 IU/ml
Trichomonas vaginalis [2]; isolate 1065, metronidazole-sensitive, aerobic
  MLC: 300 IU/ml
Trichomonas vaginalis [2]; isolate 1065, metronidazole-sensitive, anaerobic
  MLC: 400 IU/ml
Trichomonas vaginalis [2]; isolate 1165, metronidazole-sensitive, aerobic
  MLC: 350 IU/ml
Trichomonas vaginalis [2]; isolate 1165, metronidazole-sensitive, anaerobic
  MLC: 250 IU/ml
Trichomonas vaginalis [2]; isolate 1910, metronidazole-sensitive, aerobic
  MLC: 400 IU/ml
Trichomonas vaginalis [2]; isolate 1910, metronidazole-sensitive, anaerobic
  MLC: 350 IU/ml
Trichomonas vaginalis [2]; isolate 6950, metronidazole-sensitive, aerobic
  MLC: 350 IU/ml
Trichomonas vaginalis [2]; isolate 6950, metronidazole-sensitive, anaerobic
  MLC: 400 IU/ml
Trichomonas vaginalis [2]; isolate 89532.2, metronidazole-insensitive, aerobic
  MLC: 350 IU/ml
Trichomonas vaginalis [2]; isolate 89532.2, metronidazole-insensitive, anaerobic
  MLC: 350 IU/ml
Trichomonas vaginalis [2]; isolate 90576, metronidazole-insensitive, aerobic
  MLC: 250 IU/ml
Trichomonas vaginalis [2]; isolate 90576, metronidazole-insensitive, anaerobic
  MLC: 350 IU/ml
Trichomonas vaginalis [2]; isolate CDC85, metronidazole-insensitive, aerobic
  MLC: 350 IU/ml
Trichomonas vaginalis [2]; isolate CDC85, metronidazole-insensitive, anaerobic
  MLC: 350 IU/ml
Trichomonas vaginalis [2]; isolate IR78, metronidazole-insensitive, aerobic
  MLC: 300 IU/ml
Trichomonas vaginalis [2]; isolate IR78, metronidazole-insensitive, anaerobic
  MLC: 300 IU/ml
Trichomonas vaginalis [2]; isolate PHLS289, metronidazole-insensitive, aerobic
  MLC: 200 IU/ml
Trichomonas vaginalis [2]; isolate PHLS289, metronidazole-insensitive, anaerobic
  MLC: 250 IU/ml
Trichomonas vaginalis [2]; isolate STH-1, metronidazole-insensitive, aerobic
  MLC: 250 IU/ml
Trichomonas vaginalis [2]; isolate STH-1, metronidazole-insensitive, anaerobic
  MLC: 350 IU/ml
Trichomonas vaginalis [2]; isolate UCH-1, metronidazole-sensitive, aerobic
  MLC: 400 IU/ml
Trichomonas vaginalis [2]; isolate UCH-1, metronidazole-sensitive, anaerobic
  MLC: 400 IU/ml
Trichomonas vaginalis [2]; isolate UCH-2, metronidazole-sensitive, aerobic
  MLC: 350 IU/ml
Trichomonas vaginalis [2]; isolate UCH-2, metronidazole-sensitive, anaerobic
  MLC: 400 IU/ml
Trichomonas vaginalis [2]; isolate UCH-M1, metronidazole-sensitive, aerobic
  MLC: 250 IU/ml
Trichomonas vaginalis [2]; isolate UCH-M1, metronidazole-sensitive, anaerobic
  MLC: 250 IU/ml
Trichomonas vaginalis [2]; isolate UOB-1, metronidazole-sensitive, aerobic
  MLC: 400 IU/ml
Trichomonas vaginalis [2]; isolate UOB-1, metronidazole-sensitive, anaerobic
  MLC: 400 IU/ml
Trichomonas vaginalis [2]; span over metronidazole-sensitive isolates, converted from IU/ml
  MLCs: 3.13 to 5.47 mg/mL
[3]
  damage to chromosomal structure: did not induce any damage to the chromosomal structure
Micrococcus uteus
  Potency of the material used: 65 I.U./mg
[4]; 1 mg/ml
  Cell number reduction compared to controls: 68.3%
[4]; 2 mg/ml
  Cell number reduction compared to controls: 90.6%
[4]; 5 mg/ml
  Cell number reduction compared to controls: > 99.5%
[4]; axenic versus xenic
  concentration required for lethality in axenic as opposed to xenic amoeba cultures: 2-3 times
Tritrichomonas gallinae; aerobic
  MLC: 250 IU/ml
Tritrichomonas gallinae; anaerobic
  MLC: 300 IU/ml
Tritrichomonas gallinae; span depending upon culture conditions
  MLC: 250-300 IU/ml
Tritrichomonas gallinae; span depending upon culture conditions, converted from IU/ml
  MLC: 3.91 to 4.87 mg/mL
Tritrichomonas foetus; isolate 121, aerobic
  MLC: 6000 µg/mL
Tritrichomonas foetus; isolate 121, anaerobic
  MLC: 6000 µg/mL
Tritrichomonas foetus; isolate 138, aerobic
  MLC: 6000 µg/mL
Tritrichomonas foetus; isolate 138, anaerobic
  MLC: 6000 µg/mL
Tritrichomonas foetus; isolate ATCC 30166, aerobic
  MLC: 6000 µg/mL
Tritrichomonas foetus; isolate ATCC 30166, anaerobic
  MLC: 6000 µg/mL
Tritrichomonas foetus; isolate FT.3741, aerobic
  MLC: 6000 µg/mL
Tritrichomonas foetus; isolate FT.3741, anaerobic
  MLC: 5000 µg/mL
Tritrichomonas foetus; isolate S10, aerobic
  MLC: 6000 µg/mL
Tritrichomonas foetus; isolate S10, anaerobic
  MLC: 6000 µg/mL
Tritrichomonas foetus; isolate TF.7, aerobic
  MLC: 6000 µg/mL
Tritrichomonas foetus; isolate TF.7, anaerobic
  MLC: 6000 µg/mL
Spleen cells of rats
  nucleoid sedimentation velocity: Only a small reduction in nucleoid sedimentation velocity
[5]
  mutagenic potential: devoid of mutagenic potential

Reference: patent publication US5300491A, “Treatment of protozoal infection” (priority 1992, dated 1994)
